Earlier results in patent publication US20260335248A1, “ANTIFUNGAL AGENT ENCAPSULATED IN A LIPID NANOCRYSTAL FOR TREATING MUCORMYCOSIS” (MATINAS BIOPHARMA NANOTECHNOLOGIES, INC., priority 2022, published 2026).

Tested on: mucormycosis
Conditions: Luo et al., 2013

Structure (SMILES): CC[C@@H]([C@H](C)O)n1ncn(-c2ccc(N3CCN(c4ccc(OC[C@@H]5CO[C@@](Cn6cncn6)(c6ccc(F)cc6F)C5)cc4)CC3)cc2)c1=O [Posaconazole, posaconazole]
- fungal burdens in lungs and brain compared with placebo: effective in reducing the fungal burdens in lungs and brain
